Data published in patent publication US20230097157A1, “Bicyclic Pyridin-2-one and pyrimidin-4-one Derivatives Useful As a Factor XIa Inhibitors” (Janssen Pharmaceutica NV, priority 2021, published 2023).
Read-outs that look alike come from different tables or passages of the source.

Key:
Factor XIa = Factor XIa (Homo sapiens, UniProt P03951); experiment: Factor XIa inhibition assay (FLINT) utilizing a fluorophore-quencher pair peptide substrate 5Fam-[…]-K5Tamra; type: biochemical; conditions: kinetic (KIN) reads, read-out: FXIa KIN Inh IC50
Sequence of Factor XIa (P03951 388-625 limits assumed): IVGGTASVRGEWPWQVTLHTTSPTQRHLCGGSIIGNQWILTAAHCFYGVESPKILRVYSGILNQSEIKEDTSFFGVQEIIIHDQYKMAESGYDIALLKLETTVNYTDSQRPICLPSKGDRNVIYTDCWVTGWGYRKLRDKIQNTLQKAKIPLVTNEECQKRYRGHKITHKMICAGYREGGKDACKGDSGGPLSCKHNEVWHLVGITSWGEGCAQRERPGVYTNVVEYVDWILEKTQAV
Sequence of Factor XIa (P03951 19-387 partner limits assumed): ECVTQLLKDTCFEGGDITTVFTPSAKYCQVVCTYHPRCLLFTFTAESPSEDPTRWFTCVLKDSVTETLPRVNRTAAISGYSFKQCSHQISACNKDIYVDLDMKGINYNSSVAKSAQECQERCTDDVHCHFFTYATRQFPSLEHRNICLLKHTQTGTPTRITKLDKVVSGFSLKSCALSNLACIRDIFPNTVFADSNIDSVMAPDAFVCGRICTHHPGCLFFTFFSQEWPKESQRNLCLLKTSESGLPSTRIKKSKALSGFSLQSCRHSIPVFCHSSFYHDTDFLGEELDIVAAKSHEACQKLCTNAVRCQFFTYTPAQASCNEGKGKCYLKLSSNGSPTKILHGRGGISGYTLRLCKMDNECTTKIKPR
Outline: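 FXIa was preincubated with compound for 30 min at room temperature in Tris pH 7.5 buffer containing CaCl2, BSA and CHAPS, then reacted with 15 μM quenched 5Fam/Tamra peptide substrate. Fluorescence (485/520 nm) was read kinetically every 5 min for 30 min.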

human plasma kallikrein = human plasma kallikrein (Homo sapiens, UniProt P03952); experiment: Kallikrein inhibition assay (FLINT) utilizing a quenched AMC peptide substrate Z-Gly-Pro-Arg-AMC; type: biochemical; conditions: kinetic (KIN) reads, read-out: Kallikrein KIN Inh IC50
Sequence of human plasma kallikrein (P03952 391-638 limits assumed): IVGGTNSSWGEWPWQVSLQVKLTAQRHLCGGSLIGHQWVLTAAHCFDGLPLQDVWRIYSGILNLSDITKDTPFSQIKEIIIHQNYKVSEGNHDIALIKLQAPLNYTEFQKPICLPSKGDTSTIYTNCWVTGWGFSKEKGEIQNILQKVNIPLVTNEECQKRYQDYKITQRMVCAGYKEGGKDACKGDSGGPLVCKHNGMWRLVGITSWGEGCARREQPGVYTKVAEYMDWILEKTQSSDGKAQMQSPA
Sequence of human plasma kallikrein (P03952 20-390 partner limits assumed): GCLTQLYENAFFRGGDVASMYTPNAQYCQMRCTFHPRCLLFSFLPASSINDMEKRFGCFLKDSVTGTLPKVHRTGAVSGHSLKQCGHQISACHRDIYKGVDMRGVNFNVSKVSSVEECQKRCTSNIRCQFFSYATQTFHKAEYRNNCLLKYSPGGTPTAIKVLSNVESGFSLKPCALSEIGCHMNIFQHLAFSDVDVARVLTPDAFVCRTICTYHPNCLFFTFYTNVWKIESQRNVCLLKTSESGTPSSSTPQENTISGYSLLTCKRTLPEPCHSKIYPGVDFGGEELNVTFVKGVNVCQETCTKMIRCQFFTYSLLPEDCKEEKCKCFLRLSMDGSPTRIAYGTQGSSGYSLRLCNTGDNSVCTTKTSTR
Outline: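 Human plasma kallikrein (2 nM final) pre-incubated 30 min with compound (11-point 3-fold series, top 1 μM, 2% DMSO), then 50 μM Z-Gly-Pro-Arg-AMC added. Buffer 50 mM Tris pH 7.5, 100 mM NaCl, 5 mM CaCl2, BSA, CHAPS. AMC fluorescence (340/440 nm) read kinetically over 30 min at room temperature, IC50 by 4-parameter logistic fit.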

IC50 (Factor XIa; values in nM) [nM] | IC50 (human plasma kallikrein; values in nM) [nM] | IC50 (Factor XIa; unit μM) [nM] | IC50 (human plasma kallikrein; unit μM) [nM] | SMILES
253 | 294 |  |  | CC(=O)Nc1ncc(-c2cnc(C3CC4(CC4)c4cc(-c5c(-n6cnnn6)ccc(Cl)c5F)cc(=O)n43)[nH]2)s1 (centres unmarked) [Example 22]
 |  | > 10000 | > 10000 | C[C@@H]1C[C@@H](c2ncc(-c3ccnc(C(F)(F)F)c3)[nH]2)n2c1nc(-c1c(-n3cnnn3)ccc(Cl)c1F)cc2=O (relative stereo) [Example 147, (6S*,8R*)-2-(3-Chloro-2-fluoro-6-(1H-tetrazol-1-yl)phenyl)-8-methyl-6-(5-(2-(trifluoromethyl)pyridin-4-yl)-1H-imidazol-2-yl)-7,8-dihydropyrrolo[1,2-a]pyrimidin-4(6H)-one]
 |  | > 10000 | > 10000 | C[C@H]1C[C@H](c2ncc(-c3cn[nH]c3)[nH]2)n2c1nc(-c1c(-n3cnnn3)ccc(Cl)c1F)cc2=O (stereo in doubt) [Example 109, (6*R,8*S)-6-(5-(1H-Pyrazol-4-yl)-1H-imidazol-2-yl)-2-(3-chloro-2-fluoro-6-(1H-tetrazol-1-yl)phenyl)-8-methyl-7,8-dihydropyrrolo[1,2-a]pyrimidin-4(6H)-one]
14.9 | 97.8 |  |  | C[C@H]1C[C@@H](c2ncc(-c3ccnc(F)c3)[nH]2)n2c1cc(-c1c(-n3cnnn3)ccc(Cl)c1F)cc2=O (stereo in doubt) [Example 44, (1*S,3*S)-7-(3-Chloro-2-fluoro-6-(1H-tetrazol-1-yl)phenyl)-3-(5-(2-fluoropyridin-4-yl)-1H-imidazol-2-yl)-1-methyl-2,3-dihydroindolizin-5(1H)-one]
19.6 | 167 |  |  | CC1CC(c2ncc(-c3ccnc(CO)c3F)[nH]2)n2c1nc(-c1c(-n3cnnn3)ccc(Cl)c1F)cc2=O (single isomer, unassigned) [Example 77, (6S*)-2-(3-Chloro-2-fluoro-6-(1H-tetrazol-1-yl)phenyl)-6-(5-(3-fluoro-2-(hydroxymethyl)pyridin-4-yl)-1H-imidazol-2-yl)-8-methyl-7,8-dihydropyrrolo[1,2-a]pyrimidin-4(6H)-one]
1.2 | 100 |  |  | Nc1ccc(-c2cnc(C3CCCc4cc(-c5c(-n6cnnn6)ccc(Cl)c5F)cc(=O)n43)[nH]2)c(F)n1 (single isomer, unassigned) [Cmpd (III), (*S)-6-(5-(6-amino-2-fluoropyridin-3-yl)-1H-imidazol-2-yl)-2-(3-chloro-2-fluoro-6-(1H-tetrazol-1-yl)phenyl)-6,7,8,9-tetrahydro-4H-quinolizin-4-one]
1.2 | 16.8 |  |  | Nc1ccc(-c2cnc([C@@H]3CC4(CC4)c4nc(-c5c(-n6cnnn6)ccc(Cl)c5F)cc(=O)n43)[nH]2)c(F)n1 [Example 134, (S)-6′-(5-(6-Amino-2-fluoropyridin-3-yl)-1H-imidazol-2-yl)-2′-(3-chloro-2-fluoro-6-(1H-tetrazol-1-yl)phenyl)-6′,7′-dihydro-4′H-spiro[cyclopropane-1,8′-pyrrolo[1,2-a]pyrimidin]-4′-one]
0.5 | 13.5 |  |  | C[C@H]1C[C@H](c2ncc(-c3ccc(N)nc3Cl)[nH]2)n2c1nc(-c1c(-n3cnnn3)ccc(Cl)c1F)cc2=O [Example 141]
0.3 | 1.5 |  |  | COC(=O)Nc1ccc(-c2cnc([C@@H]3C[C@@H](OC)c4cc(-c5c(-n6cnnn6)ccc(Cl)c5F)cc(=O)n43)[nH]2)cc1 [Example 152, Methyl (4-(2-((1R,3S)-7-(3-chloro-2-fluoro-6-(1H-tetrazol-1-yl)phenyl)-1-methoxy-5-oxo-1,2,3,5-tetrahydroindolizin-3-yl)-1H-imidazol-5-yl)phenyl)carbamate]
0.3 | 3.4 |  |  | COC(=O)Nc1ccc(-c2cnc([C@@H]3C[C@@H](C)c4nc(-c5c(-n6cnnn6)ccc(Cl)c5F)cc(=O)n43)[nH]2)cc1 (stereo in doubt) [Example 126, Methyl (4-(2-((6*S,8*R)-2-(3-Chloro-2-fluoro-6-(1H-tetrazol-1-yl)phenyl)-8-methyl-4-oxo-4,6,7,8-tetrahydropyrrolo[1,2-a]pyrimidin-6-yl)-1H-imidazol-5-yl)phenyl)carbamate]
247 |  |  | 6000 | COC(=O)Nc1ccc(-c2cnc([C@H]3C[C@H](C)c4nc(-c5c(-n6cnnn6)ccc(Cl)c5F)cc(=O)n43)[nH]2)cn1 (stereo in doubt) [Example 115, methyl (5-(2-((6R*,8S*)-2-(3-Chloro-2-fluoro-6-(1H-tetrazol-1-yl)phenyl)-8-methyl-4-oxo-4,6,7,8-tetrahydropyrrolo[1,2-a]pyrimidin-6-yl)-1H-imidazol-5-yl)pyridin-2-yl)carbamate]
19.7 | 295 |  |  | C[C@H]1C[C@@H](c2ncc(-c3ccnc(N)n3)[nH]2)n2c1cc(-c1c(-n3cnnn3)ccc(Cl)c1F)cc2=O [Example 20, (1S,3S)-3-(5-(2-Aminopyrimidin-4-yl)-1H-imidazol-2-yl)-7-(3-chloro-2-fluoro-6-(1H-tetrazol-1-yl)phenyl)-1-methyl-2,3-dihydroindolizin-5(1H)-one]
 |  | 1200 | > 10000 | C[C@@H]1C[C@H](c2ncc(-c3ccc(N)nc3F)[nH]2)n2c1cc(-c1c(-n3cnnn3)ccc(Cl)c1F)cc2=O (stereo in doubt) [Example 56, (1*R,3*R)-3-(5-(6-Amino-2-fluoropyridin-3-yl)-1H-imidazol-2-yl)-7-(3-chloro-2-fluoro-6-(1H-tetrazol-1-yl)phenyl)-1-methyl-2,3-dihydroindolizin-5(1H)-one]
63.5 | 324 |  |  | CC1C[C@H](c2nc(-c3cnc(N)cn3)c[nH]2)n2c1nc(-c1c(-n3cc(C(F)(F)F)nn3)ccc(Cl)c1F)cc2=O (stereo partly drawn) [Example 79, (6R)-6-(4-(5-aminopyrazin-2-yl)-1H-imidazol-2-yl)-2-(3-chloro-2-fluoro-6-(4-(trifluoromethyl)-1H-1,2,3-triazol-1-yl)phenyl)-8-methyl-7,8-dihydropyrrolo[1,2-a]pyrimidin-4(6H)-one]
250 | 635 |  |  | Cc1c(-c2cnc([C@H]3C[C@H](C)c4cc(-c5c(-n6cnnn6)ccc(Cl)c5F)cc(=O)n43)[nH]2)ccnc1C#N (relative stereo) [Example 31, 4-(2-((1S*,3R*)-7-(3-Chloro-2-fluoro-6-(1H-tetrazol-1-yl)phenyl)-1-methyl-5-oxo-1,2,3,5-tetrahydroindolizin-3-yl)-1H-imidazol-5-yl)-3-methylpicolinonitrile]
8.7 | 287 |  |  | C[C@H]1C[C@@H](c2ncc(-c3cnc(N)nc3)[nH]2)n2c1nc(-c1c(-n3cnnn3)ccc(Cl)c1F)cc2=O (stereo in doubt) [Example 119, (6*S,8*S)-6-(5-(2-Aminopyrimidin-5-yl)-1H-imidazol-2-yl)-2-(3-chloro-2-fluoro-6-(1H-tetrazol-1-yl)phenyl)-8-methyl-7,8-dihydropyrrolo[1,2-a]pyrimidin-4(6H)-one]
22.6 |  |  | 1300 | Cc1nc(N)sc1-c1cnc([C@@H]2C[C@H](C)c3cc(-c4c(-n5cnnn5)ccc(Cl)c4F)cc(=O)n32)[nH]1 [Example 26, (1S,3S)-3-(5-(2-Amino-4-methylthiazol-5-yl)-1H-imidazol-2-yl)-7-(3-chloro-2-fluoro-6-(1H-tetrazol-1-yl)phenyl)-1-methyl-2,3-dihydroindolizin-5(1H)-one]
231 |  |  | 4000 | Nc1ccc(-c2cnc([C@H]3CC4(CC4)c4nc(-c5c(-n6cnnn6)ccc(Cl)c5F)cc(=O)n43)[nH]2)c(F)n1 [Example 133, (R)-6′-(5-(6-Amino-2-fluoropyridin-3-yl)-1H-imidazol-2-yl)-2′-(3-chloro-2-fluoro-6-(1H-tetrazol-1-yl)phenyl)-6′,7′-dihydro-4′H-spiro[cyclopropane-1,8′-pyrrolo[1,2-a]pyrimidin]-4′-one]
5 | 240 |  |  | C[C@H]1C[C@@H](c2ncc(-c3cnc(N)s3)[nH]2)n2c1cc(-c1c(-n3cnnn3)ccc(Cl)c1F)cc2=O [Example 23, (1S,3S)-3-(5-(2-Aminothiazol-5-yl)-1H-imidazol-2-yl)-7-(3-chloro-2-fluoro-6-(1H-tetrazol-1-yl)phenyl)-1-methyl-2,3-dihydroindolizin-5(1H)-one]
 |  | 3000 | > 10000 | C[C@H]1C[C@@H](c2ncc(-c3ccc4nccn4c3)[nH]2)n2c1cc(-c1c(-n3cnnn3)ccc(Cl)c1F)cc2=O (stereo in doubt) [Example 48, (1S*,3S*)-7-(3-Chloro-2-fluoro-6-(1H-tetrazol-1-yl)phenyl)-3-(5-(imidazo[1,2-a]pyridin-6-yl)-1H-imidazol-2-yl)-1-methyl-2,3-dihydroindolizin-5(1H)-one]
143 | 135 |  |  | COc1cc(-c2cnc([C@@H]3C[C@@H](C)c4nc(-c5c(-n6cnnn6)ccc(Cl)c5F)cc(=O)n43)[nH]2)ccn1 (stereo in doubt) [Example 98, (6*S,8*R)-2-(3-Chloro-2-fluoro-6-(1H-tetrazol-1-yl)phenyl)-6-(5-(2-methoxypyridin-4-yl)-1H-imidazol-2-yl)-8-methyl-7,8-dihydropyrrolo[1,2-a]pyrimidin-4(6H)-one]
18.2 | 446 |  |  | C[C@H]1C[C@@H](c2ncc(-c3ccc4c(=O)cc[nH]c4c3)[nH]2)n2c1nc(-c1c(-n3cnnn3)ccc(Cl)c1F)cc2=O (relative stereo) [Example 102, 7-(2-((6*S,8*S)-2-(3-Chloro-2-fluoro-6-(1H-tetrazol-1-yl)phenyl)-8-methyl-4-oxo-4,6,7,8-tetrahydropyrrolo[1,2-a]pyrimidin-6-yl)-1H-imidazol-5-yl)quinolin-4(1H)-one]
